Entries after “also recorded” stand apart in the source; their conditions may differ.
How the values were obtained:
p38β = target: T1, p38β (Homo sapiens, UniProt Q15759); assay: DSF, binding to p38β; settings: DSF melting temperature, concentration series
T1 construct: HA (N); made in house; host or cells: E. coli BL21

[1] = tested on: IL-8-directed neutrophil TEM through HMVECLs; assay: Neutrophil transendothelial migration (TEM) assay; type: cell-based, human; settings: 10 μM, HMVECLs preincubated at 39.5° C. for 6 h
[2] = tested on: p38-dependent phosphorylation of MK2 and Stat-1 in HeLa cells; assay: Inhibition of substrate phosphorylation (immunoblot); type: cell-based, human; settings: 10 μM SB203580 or 50 μM UM101 for 30 min
Description: Cell extracts prepared in RIPA buffer containing protease and phosphatase inhibitors were resolved by SDS-PAGE, transferred to PVDF membrane, blocked with 5% nonfat dry milk, probed with primary antibodies against phosphorylated MK2 and Stat-1, and total p38α as a loading control. Bands were detected using secondary antibodies conjugated to infrared fluorophores and infrared fluorescence imaging (Odyssey; LICOR).

[3] = tested on: LPS-induced cytokine expression in PMA-differentiated THP1 cells; assay: LPS-induced cytokine expression, PCR-based cytokine array; type: cell-based, human; settings: 25 μM SB203580 or 10, 25, or 100 μM UM101
[4] = tested on: LPS/hyperthermia-induced ALI in CD1 mice; assay: Mouse i.t. LPS/FRH-induced acute lung injury model; settings: single i.p. injection of 100-1000 μg UM101, 1000 μg UM60 or 1000 μg SB203580, 30 min before i.t. 50 μg LPS and hyperthermia

T1 sequence (Q15759 whole entry): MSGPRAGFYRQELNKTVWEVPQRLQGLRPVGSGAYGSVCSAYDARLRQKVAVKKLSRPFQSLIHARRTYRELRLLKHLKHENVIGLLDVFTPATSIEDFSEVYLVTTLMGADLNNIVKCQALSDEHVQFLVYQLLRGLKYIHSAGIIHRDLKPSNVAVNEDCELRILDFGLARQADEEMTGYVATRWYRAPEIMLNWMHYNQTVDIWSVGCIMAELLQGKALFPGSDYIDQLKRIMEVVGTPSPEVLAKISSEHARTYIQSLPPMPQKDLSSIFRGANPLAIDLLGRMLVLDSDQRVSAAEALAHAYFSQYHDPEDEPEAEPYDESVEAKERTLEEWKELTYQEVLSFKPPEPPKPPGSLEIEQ

Compound: C[S+]([O-])c1ccc(-c2nc(-c3ccncc3)c(-c3ccc(F)cc3)[nH]2)cc1 (stereo not drawn) [SB203580, reference compound]
- stabilization of p38β in DSF (binding), in words (p38β): stabilized both p38α and p38β
- reduction of hyperthermia-augmented neutrophil TEM [1]: 84%
- anisomycin-stimulated phosphorylation of MK2, in words [2]: failed to completely block MK2 phosphorylation; also recorded: reduced
- anisomycin-stimulated phosphorylation of Stat-1, in words [2]: reduced
- LPS-stimulated genes of the array (16) whose expression was inhibited, in words [3]: inhibited expression of seven
- mice that died within 24 h [4]: one of six
